Measurements taken from ChEMBL document CHEMBL5528008, “Design and synthesis of the first PARP-1 and proteasome dual inhibitors to treat breast cancer” (Eur J Med Chem, 2024).
Each block holds one compound with its values, some of them ahead of it. Active and inactive are the calls of the source. The rule behind the calls is not given here.

Columns and labels:
[1] = system: BT-549; experiment: Induction of DNA damage in human BT-549 cells assessed as upregulation of gamma-H2AX level at 1 uM incubated for 48 hrs by immunoblotting analysis; type: functional, cell-based
[2] = system: BT-549; experiment: Synergistic antiproliferative activity against human BT-549 cells assessed as synergistic score in presence of Ixazomib; type: functional
[3] = system: BT-549; experiment: Cytotoxicity against human BT-549 cells assessed as inhibition of cell growth incubated for 72 hrs by MTT assay; type: functional, cell-based; conditions: BT-549, 72 h
[4] = system: BT-549; experiment: Induction of DNA damage in human BT-549 cells assessed as upregulation of gamma-H2AX level at 0.5 uM incubated for 48 hrs by immunoblotting analysis; type: functional, cell-based
[5] = system: MCF7; experiment: Cytotoxicity against human MCF7 cells assessed as inhibition of cell growth incubated for 72 hrs by MTT assay; type: functional, cell-based; conditions: MCF7, 72 h
[6] = system: MDA-MB-231; experiment: Cytotoxicity against human MDA-MB-231 cells assessed as inhibition of cell growth incubated for 72 hrs by MTT assay; type: functional, cell-based; conditions: MDA-MB-231, 72 h
[7] = system: BT-549; experiment: Synergistic antiproliferative activity against human BT-549 cells assessed as synergistic score in presence of Olaparib; type: functional
[8] = system: BT-549; experiment: Induction of DNA damage in human BT-549 cells assessed as increase in gamma-H2AX localization in nucleus at 0.125 uM incubated for 48 hrs by fluorescence confocal microscopic analysis; type: functional, cell-based
[9] = biological target: T1, Poly [ADP-ribose] polymerase 1 (Homo sapiens, UniProt P09874); experiment: Inhibition of PARP-1 in human BT-549 cells assessed as downregulation of RAD51 expression at 0.05 uM incubated for 48 hrs by immunoblotting analysis; type: cell-based
T1 sequence (P09874 whole entry): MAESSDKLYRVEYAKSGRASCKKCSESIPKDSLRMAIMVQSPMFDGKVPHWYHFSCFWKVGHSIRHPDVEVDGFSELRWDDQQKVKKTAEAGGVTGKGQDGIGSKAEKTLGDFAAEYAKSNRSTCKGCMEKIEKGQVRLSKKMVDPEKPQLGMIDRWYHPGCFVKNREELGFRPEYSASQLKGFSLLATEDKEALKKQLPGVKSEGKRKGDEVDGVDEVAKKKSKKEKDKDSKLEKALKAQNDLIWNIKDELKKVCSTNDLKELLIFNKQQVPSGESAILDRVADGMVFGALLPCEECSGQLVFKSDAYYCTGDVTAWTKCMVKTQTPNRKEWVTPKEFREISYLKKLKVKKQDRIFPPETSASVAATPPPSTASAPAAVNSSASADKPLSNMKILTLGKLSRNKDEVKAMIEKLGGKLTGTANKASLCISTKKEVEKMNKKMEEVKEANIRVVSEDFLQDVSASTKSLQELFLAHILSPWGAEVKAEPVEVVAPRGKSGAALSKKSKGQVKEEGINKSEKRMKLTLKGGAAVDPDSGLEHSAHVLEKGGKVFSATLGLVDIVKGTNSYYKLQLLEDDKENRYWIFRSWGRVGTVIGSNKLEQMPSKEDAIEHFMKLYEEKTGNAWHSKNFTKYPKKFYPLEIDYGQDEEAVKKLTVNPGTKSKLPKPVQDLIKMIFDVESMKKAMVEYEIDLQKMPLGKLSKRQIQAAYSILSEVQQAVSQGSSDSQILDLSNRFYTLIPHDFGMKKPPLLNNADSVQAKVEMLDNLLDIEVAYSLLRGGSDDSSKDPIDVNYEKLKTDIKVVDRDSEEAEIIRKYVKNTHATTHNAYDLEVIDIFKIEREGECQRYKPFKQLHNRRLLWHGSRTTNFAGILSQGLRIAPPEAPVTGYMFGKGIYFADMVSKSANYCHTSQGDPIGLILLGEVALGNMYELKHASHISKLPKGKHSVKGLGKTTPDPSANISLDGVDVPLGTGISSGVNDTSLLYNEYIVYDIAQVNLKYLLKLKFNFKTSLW

[10] = system: BT-549; experiment: Induction in cell cycle arrest in human BT-549 cells assessed as upregulation of p21 expression at 0.5 uM incubated for 48 hrs by Western blotting analysis; type: functional, cell-based
[11] = system: BT-549; experiment: Induction of DNA damage in human BT-549 cells assessed as decrease in polyubiquitination in nucleus at 0.125 uM incubated for 48 hrs by fluorescence confocal microscopic analysis; type: functional, cell-based
[12] = system: ES-2; experiment: Antiproliferative activity against human ES2 cells assessed as fold change in inhibition of cell growth at 0.3 to 1.2 uM incubated for 72 hrs by MTT assay; type: functional; conditions: dose 0.3-1.2 µM
[13] = biological target: T1, Poly [ADP-ribose] polymerase 1; experiment: Inhibition of PARP-1 in human BT-549 cells assessed as downregulation of P-ATM expression at 0.05 uM incubated for 48 hrs by immunoblotting analysis; type: cell-based
[14] = biological target: T1, Poly [ADP-ribose] polymerase 1; experiment: Inhibition of PARP-1 in human BT-549 cells assessed as downregulation of BRCA2 mRNA expression incubated for 48 hrs by RT-qPCR analysis; type: cell-based
[15] = system: BT-549; experiment: Induction in cell cycle arrest in human BT-549 cells assessed as downregulation of CDK1 expression at 0.05 uM incubated for 48 hrs by Western blotting analysis; type: functional, cell-based
[16] = system: SK-OV-3; experiment: Antiproliferative activity against human SK-OV-3 cells assessed as fold change in inhibition of cell growth at 0.3 to 1.2 uM incubated for 72 hrs by MTT assay; type: functional; conditions: dose 0.3-1.2 µM
[17] = biological target: T1, Poly [ADP-ribose] polymerase 1; experiment: Inhibition of PARP-1 in human BT-549 cells assessed as downregulation of RAD51 expression at 0.5 uM incubated for 48 hrs by immunoblotting analysis; type: cell-based
[18] = system: HEY; experiment: Antiproliferative activity against human HEY cells assessed as fold change in inhibition of cell growth at 0.3 to 1.2 uM incubated for 72 hrs by MTT assay; type: functional; conditions: dose 0.3-1.2 µM
[19] = biological target: 20S proteasome; experiment: Inhibition of 20S proteasome (unknown origin) using […] as substrate; type: protein-complex assay, Homo sapiens
[20] = system: MDA-MB-231; experiment: Antiproliferative activity against human MDA-MB-231 cells assessed as fold change in inhibition of cell growth at 0.3 to 1.2 uM incubated for 72 hrs by MTT assay; type: functional; conditions: dose 0.3-1.2 µM
[21] = system: BT-549; experiment: Induction of apoptosis in human BT-549 cells assessed as upregulation of cleaved caspase-3 expression incubated for 48 hrs by Western blotting analysis; type: functional, cell-based
[22] = system: PC-3; experiment: Antiproliferative activity against human PC-3 cells assessed as fold change in inhibition of cell growth at 0.3 to 1.2 uM incubated for 72 hrs by MTT assay; type: functional; conditions: dose 0.3-1.2 µM
[23] = system: BT-549; experiment: Induction of apoptosis in human BT-549 cells assessed as upregulation of cleaved PARP expression incubated for 48 hrs by Western blotting analysis; type: functional, cell-based
[24] = system: MCF7; experiment: Antiproliferative activity against human MCF7 cells assessed as fold change in inhibition of cell growth at 0.3 to 1.2 uM incubated for 72 hrs by MTT assay; type: functional; conditions: dose 0.3-1.2 µM
[25] = Antiproliferative activity against human COV362 cells assessed as fold change in inhibition of cell growth at 0.3 to 1.2 uM incubated for 72 hrs by MTT assay; type: functional; conditions: dose 0.3-1.2 µM
[26] = system: BT-549; experiment: Induction in cell cycle arrest in human BT-549 cells assessed as upregulation of p21 expression at 0.05 uM incubated for 48 hrs by Western blotting analysis; type: functional, cell-based
[27] = biological target: T1, Poly [ADP-ribose] polymerase 1; experiment: Inhibition of PARP-1 (unknown origin) using Femto-ECL as substrate preincubated for 2.7 hrs followed by substrate addition by chemiluminescence assay
[28] = biological target: T1, Poly [ADP-ribose] polymerase 1; experiment: Inhibition of PARP-1 in human BT-549 cells assessed as downregulation of P-ATM expression at 0.5 uM incubated for 48 hrs by immunoblotting analysis; type: cell-based
[29] = system: BT-549; experiment: Induction of DNA damage in human BT-549 cells assessed as increase in polyubiquitination at 0.125 uM incubated for 48 hrs by fluorescence confocal microscopic analysis; type: functional, cell-based
[30] = system: NCI-H1299; experiment: Antiproliferative activity against human NCI-H1299 cells assessed as fold change in inhibition of cell growth at 0.3 to 1.2 uM incubated for 72 hrs by MTT assay; type: functional; conditions: dose 0.3-1.2 µM
[31] = system: BT-549; experiment: Induction in cell cycle arrest in human BT-549 cells assessed as downregulation of Cyclin A2 expression at 0.05 uM incubated for 48 hrs by Western blotting analysis; type: functional, cell-based
[32] = system: BT-549; experiment: Induction of apoptosis in human BT-549 cells assessed as increase in late apoptotic cells incubated for 48 hrs by Annexin V-FITC/PI staining based flow cytometric analysis; type: functional, cell-based
[33] = system: BT-549; experiment: Induction of DNA damage in human BT-549 cells assessed as upregulation of gamma-H2AX level at 0.05 uM incubated for 48 hrs by immunoblotting analysis; type: functional, cell-based
[34] = system: BT-549; experiment: Induction of apoptosis in human BT-549 cells assessed as increase in early apoptotic cells incubated for 48 hrs by Annexin V-FITC/PI staining based flow cytometric analysis; type: functional, cell-based
[35] = system: BT-549; experiment: Induction of DNA damage in human BT-549 cells assessed as decrease in ubiquitin localization in nucleus at 0.125 uM incubated for 48 hrs by fluorescence confocal microscopic analysis; type: functional, cell-based
[36] = system: BT-549; experiment: Antiproliferative activity against human BT-549 cells assessed as fold change in inhibition of cell growth at 0.3 to 1.2 uM incubated for 72 hrs by MTT assay; type: functional; conditions: dose 0.3-1.2 µM
[37] = biological target: T1, Poly [ADP-ribose] polymerase 1; experiment: Inhibition of PARP-1 in human BT-549 cells assessed as downregulation of BRCA1 expression at 0.5 uM incubated for 48 hrs by immunoblotting analysis; type: cell-based
[38] = system: BT-549; experiment: Induction in cell cycle arrest in human BT-549 cells assessed as downregulation of Cyclin A2 expression at 0.5 uM incubated for 48 hrs by Western blotting analysis; type: functional, cell-based
[39] = biological target: T1, Poly [ADP-ribose] polymerase 1; experiment: Inhibition of PARP-1 in human BT-549 cells assessed as downregulation of RAD51 mRNA expression incubated for 48 hrs by RT-qPCR analysis; type: cell-based
[40] = system: BT-549; experiment: Inhibition of colony formation in human BT-549 cells assessed as reduction in colony size incubated for 14 days by crystal violet staining based analysis; type: functional, cell-based; conditions: time 14.0 day
[41] = system: A549; experiment: Antiproliferative activity against human A549 cells assessed as fold change in inhibition of cell growth at 0.3 to 1.2 uM incubated for 72 hrs by MTT assay; type: functional; conditions: dose 0.3-1.2 µM
[42] = system: BT-549; experiment: Induction of DNA damage in human BT-549 cells assessed as decrease in BRCA1 localization in nucleus at 0.125 uM incubated for 48 hrs by fluorescence confocal microscopic analysis; type: functional, cell-based
[43] = biological target: T1, Poly [ADP-ribose] polymerase 1; experiment: Inhibition of PARP-1 in human BT-549 cells assessed as downregulation of FANCD2 mRNA expression incubated for 48 hrs by RT-qPCR analysis; type: cell-based
[44] = system: BT-549; experiment: Induction in cell cycle arrest in human BT-549 cells assessed as downregulation of CDK1 expression at 0.5 uM incubated for 48 hrs by Western blotting analysis; type: functional, cell-based
[45] = biological target: T1, Poly [ADP-ribose] polymerase 1; experiment: Inhibition of PARP-1 in human BT-549 cells assessed as downregulation of BRCA1 mRNA expression incubated for 48 hrs by RT-qPCR analysis; type: cell-based
[46] = biological target: T1, Poly [ADP-ribose] polymerase 1; experiment: Inhibition of PARP-1 in human BT-549 cells assessed as downregulation of BRCA1 expression at 0.05 uM incubated for 48 hrs by immunoblotting analysis; type: cell-based
[47] = system: BT-549; experiment: Inhibition of colony formation in human BT-549 cells assessed as reduction in colony number incubated for 14 days by crystal violet staining based analysis; type: functional, cell-based; conditions: time 14.0 day
[48] = biological target: T1, Poly [ADP-ribose] polymerase 1; experiment: Inhibition of PARP-1 (unknown origin) assessed as fold change in inhibition using Femto-ECL as substrate preincubated for 2.7 hrs followed by substrate addition by chemiluminescence assay

Structure (SMILES): O=C(c1cc(Cc2n[nH]c(=O)c3ccccc23)ccc1F)N1CCN(C(=O)C2CC2)CC1 [OLAPARIB]
Activity [1]: Active | Activity [2]: 12.407 | IC50 [3]: 6610 nM | Activity [4]: Active | IC50 [5]: 10600 nM | IC50 [6]: > 30000 nM

Structure (SMILES): CC(C)C[C@H](NC(=O)CNC(=O)c1cc(Cl)ccc1Cl)B(O)O [IXAZOMIB]
Activity [7]: 12.191 | IC50 [3]: 227 nM | IC50 [5]: 135 nM | Activity [8]: inactive | IC50 [6]: 42.6 nM

inhibition [9]: Active | inhibition [13]: Active | inhibition [14]: Dose-Dependent Effect | inhibition [17]: Active | IC50 [19]: 60.9 nM | IC50 [27]: 137 nM | inhibition [28]: Active | inhibition [37]: Active | inhibition [39]: Dose-Dependent Effect | inhibition [43]: Dose-Dependent Effect | inhibition [45]: Dose-Dependent Effect | inhibition [46]: Active
Structure (SMILES): CC(C)C[C@H](NC(=O)[C@H](CC(C)C)NC(=O)c1cc(Cc2n[nH]c(=O)c3ccccc23)ccc1F)B1O[C@@H]2C[C@@H]3C[C@@H](C3(C)C)[C@]2(C)O1
Activity [10]: Active | Activity [11]: Active | fold change (FC) [12]: 1 | Activity [15]: Active | fold change (FC) [16]: 1 | fold change (FC) [18]: 1 | fold change (FC) [20]: 10 | Activity [21]: Dose-Dependent Effect | fold change (FC) [22]: 1 | Activity [23]: Dose-Dependent Effect | fold change (FC) [24]: 10 | fold change (FC) [25]: 1 | Activity [26]: Active | IC50 [3]: 17.8 nM | Activity [29]: Active | fold change (FC) [30]: 1 | Activity [31]: Active | Activity [32]: Dose-Dependent Effect | Activity [33]: Active | Activity [34]: Dose-Dependent Effect | Activity [35]: Active | fold change (FC) [36]: 10 | Activity [38]: Active | Activity [4]: Active | IC50 [5]: 49.5 nM | inhibition [40]: Dose-Dependent Effect | fold change (FC) [41]: 1 | Activity [42]: Active | Activity [8]: Active | Activity [44]: Active | IC50 [6]: 31.2 nM | inhibition [47]: Dose-Dependent Effect

fold change (FC) [48]: 100
Structure (SMILES): CC(C)C[C@H](NC(=O)[C@H](CC(C)C)NC(=O)c1cc(Cc2nn(C)c(=O)c3ccccc23)ccc1F)B1O[C@@H]2C[C@@H]3C[C@@H](C3(C)C)[C@]2(C)O1
